Data on three compounds can be found in paper PMC6618047 (Clinical Pharmacology in Drug Development, 2018).

Read-outs that look alike come from different tables or passages of the source.

By Tmax is commonly meant the time from dosing to the highest level. The half-life is the time needed for the level to fall by half in the phase considered.

The conditions of data set [1]: metformin 850 mg alone; cited from earlier work.
For data set [2] the following is noted: for Fed:Fasted GMR (90% CI) AUCinf / Fed:Fasted GMR (90% CI) Cmax: adjusted geometric mean ratio fed:fasted; for AUC(0-inf): AUCinf; for AUC(0-t): AUClast.
Data set [3] is described as follows: Summary across the 3 food-effect studies. Type of data set: in vivo, human.
The conditions of data set [4]: cited from earlier work.
The conditions of data set [5]: high solubility and high permeability; no reference given; cited from earlier work.
For data set [6] the following is noted: early phase 1 and 2 studies, no reference given; cited from earlier work.
The conditions of data set [7]: for AUC(0-inf) / AUC(0-t) / Cmax / Tmax / half-life: plasma, single oral dose, healthy subjects; for AUC(0-inf): AUCinf; for AUC(0-inf) / AUC(0-t) / Cmax / Tmax / half-life / Fed:Fasted GMR (90% CI) AUCinf / Fed:Fasted GMR (90% CI) Cmax: ertugliflozin 15-mg/sitagliptin 100-mg FDC tablet; for AUC(0-t): AUClast; for Tmax: median (range); for half-life: t1/2, arithmetic mean ± SD; for Fed:Fasted GMR (90% CI) AUCinf / Fed:Fasted GMR (90% CI) Cmax: adjusted geometric mean ratio fed:fasted.

A short description of data set [8]: Food-effect pharmacokinetic study of ertugliflozin 15-mg tablet. Particulars: for AUC(0-t): AUClast.
The conditions of data set [9]: sitagliptin monotherapy, cited from earlier work.
[10] abbreviates: both, human, plasma, po, arithmetic mean ± SD, ertugliflozin 7.5-mg/metformin 1000-mg FDC tablet, single oral dose, healthy subjects, fed (high-fat breakfast).
Setting [11] is: both, human, plasma, po, geometric mean (geometric %CV), ertugliflozin 7.5-mg/metformin 1000-mg FDC tablet, single oral dose, healthy subjects, fasted.
Setting [12] is: both, human, plasma, po, geometric mean (geometric %CV), ertugliflozin 7.5-mg/metformin 1000-mg FDC tablet, single oral dose, healthy subjects, fed (high-fat breakfast).
Setting [13] is: ertugliflozin 7.5-mg/metformin 1000-mg FDC tablet.
Setting [14] is: both, human, po, geometric mean (geometric %CV), fasted.
Where [15] appears, read: both, human, po, geometric mean (geometric %CV), fed (high-fat breakfast).
Setting [16] is: both, human, po, fed (high-fat breakfast).
[17] abbreviates: ertugliflozin 15-mg tablet, adjusted geometric mean ratio fed:fasted.

In the case of `CN(C)C(=N)N=C(N)N` [Metformin], in data set [1], the “Increase in Tmax, fed versus fasted” value was “approximately 35 minute”; the “Lower AUC, fed versus fasted” value was 25%; the “Lower mean Cmax, fed versus fasted” value is 40%. The “Delay of Tmax, fed versus fasted” value in data set [2] (administered as ertugliflozin/metformin FDC tablet) was determined as 1.7 h. Moreover, the Tmax in [2] (both, human, plasma, po) was found to be 2.3 h. Besides, in [2] (setting [10]), the Cmax was determined as 1520 ± 417 ng/mL. This compound also had a Cmax in data set [2] (setting [11]) of 2040 ng/mL. Besides, the Cmax in data set [2] (setting [12]) worked out at 1460 ng/mL. Also, in data set [2] (setting [13]), the “Fed:Fasted GMR (90% CI) AUCinf” value is on record as 92.8 (85.1–101.3) % and the “Fed:Fasted GMR (90% CI) Cmax” value was 70.7 (63.6–78.5) %. Further, the “Tmax, median (range)” value in data set [2] (ertugliflozin 7.5-mg/metformin 1000-mg FDC tablet, single oral dose, healthy subjects, plasma, fed (high-fat breakfast)) is 4.0 (0.5–8.0) h.

As to `CCOc1ccc(Cc2cc([C@]34OC[C@](CO)(O3)[C@@H](O)[C@H](O)[C@H]4O)ccc2Cl)cc1` [Ertugliflozin], the “Delay of median Tmax, fed compared with fasted” value in data set [3] (in all 3 studies) was 1 h. The “Reduction of Cmax, fed compared with fasted” value in [3] (range across the 3 studies) is given as 29%–41%. Besides, the “Dose proportionality of exposure” value in data set [4] (dose range of 0.5 to 300 mg) is reported as “dose proportional”. Moreover, in [4] (phase 1 studies, oral administration, fasted conditions), the “median Tmax” value is 0.5 to 1.5 h. The “terminal elimination half-life (t1/2)” value in [4] (phase 1 studies) was 11 to 17 h. Further, in data set [5], the “Biopharmaceutical Classification System (BCS) class” value is “class I”. In addition, the Maximum tolerated dose result in [6] is “has not been identified”. For the same compound, the “Decrease of Cmax in the fed state compared with the fasted state” value in [7] (administered as ertugliflozin/sitagliptin FDC, based on adjusted GMR) was determined as 30%; in [2] (administered as ertugliflozin/metformin FDC, based on adjusted GMR), 41%; in data set [8] (administered as monotherapy (15-mg tablet), based on adjusted GMR) it was 29%. For the same compound, the AUC(0-inf) in data set [7] (setting [14]) was 1170 ng·h/mL; in data set [7] (setting [15]), 1110 ng·h/mL; in [2] (setting [10]), 621 ± 168 ng·h/mL; in data set [2] (setting [11]) it was 655 ng·h/mL; in data set [2] (setting [12]), 602 ng·h/mL; in data set [8] (both, human, plasma, po, 15 mg, AUCinf, geometric mean (geometric %CV), ertugliflozin 15-mg tablet, single oral dose, healthy subjects, fasted), 1330 ng·h/mL. The AUC(0-t) in data set [7] (setting [14]) worked out at 1150 ng·h/mL; in data set [7] (setting [15]), 1090 ng·h/mL; in [2] (setting [10]) it was 606 ± 166 ng·h/mL; in data set [2] (setting [11]) it was 640 ng·h/mL; in data set [2] (setting [12]) it was 587 ng·h/mL; in [8] (both, human, plasma, po, 15 mg, geometric mean (geometric %CV), ertugliflozin 15-mg tablet, single oral dose, healthy subjects, fasted), 1310 ng·h/mL. The compound also had an AUC(0-t) in data set [8] (both, human, plasma, po, 15 mg, geometric mean (geometric %CV), ertugliflozin 15-mg tablet, single oral dose, healthy subjects, fed (high-fat breakfast)) of 1220 ng·h/mL. Besides, the Cmax in [7] (both, human, po, Cmax, geometric mean (geometric %CV), fasted) amounted to 223 ng/mL; in data set [7] (both, human, po, Cmax, geometric mean (geometric %CV), fed (high-fat breakfast)) it was 157 ng/mL; in data set [2] (setting [10]) it was 82.3 ± 40.7 ng/mL; in data set [2] (setting [11]) it was 126 ng/mL; in data set [2] (setting [12]), 75.3 ng/mL; in [8] (both, human, plasma, po, 15 mg, Cmax, geometric mean (geometric %CV), ertugliflozin 15-mg tablet, single oral dose, healthy subjects, fasted), 271 ng/mL. In data set [7] (setting [16]), the Tmax is 2 h. Moreover, the half-life in data set [7] (setting [16]) is 11.6 ± 2.3 h; in data set [2] (both, human, plasma, po, t1/2, arithmetic mean ± SD, ertugliflozin 7.5-mg/metformin 1000-mg FDC tablet, single oral dose, healthy subjects, fed (high-fat breakfast)), 11.2 ± 4.5 h; in data set [8] (both, human, plasma, po, 15 mg) it was 11.5 ± 2.6 h. Also, the entries for the “Fed:Fasted GMR (90% CI) AUCinf” value in [7], in data set [2] (setting [13]) and in [8] (setting [17]) were 94.6 (91.6–97.8) %, 93.8 (90.1–97.7) % and 91.7 (88.0–95.4) %, respectively. Besides, the “Fed:Fasted GMR (90% CI) Cmax” value was 70.5 (63.3–78.4) % in [7], 59.4 (51.1–69.1) % in [2] (setting [13]) and 70.7 (61.7–80.9) % in [8] (setting [17]).

On to `N[C@@H](CC(=O)N1CCn2c(nnc2C(F)(F)F)C1)Cc1cc(F)c(F)cc1F` [Sitagliptin], for which, in [9] (90% CI 86%–103%), the “fed:fasted GMR for Cmax” value is recorded as 94%. In addition, in [9] (90% CI 97%–111%), the “fed:fasted GMR for AUCinf” value is reported as 103%. This compound displayed an AUC(0-inf) in [7] (setting [15]) of 7.1 µM·h. The same compound displayed an AUC(0-t) in [7] (setting [14]) of 7.3 µM·h. In addition, in [7] (setting [16]), the Tmax came to 1.8 h and the half-life is 12.1 ± 1.6 h. Further, in [7], the “Fed:Fasted GMR (90% CI) AUCinf” value is 96.6 (94.0–99.4) % and the “Fed:Fasted GMR (90% CI) Cmax” value was 96.1 (82.4–112.1) %. In addition, the Cmax in [7] (read-out: Cmax, geometric mean (geometric %CV), fed (high-fat breakfast), 1.00 ng/mL = 2.46 nM) was 721 nM.
